The text below walks through data of patent US20230399312A1, “SUBSTITUTED PYRIMIDINES AND METHODS OF USE” (THERAVANCE BIOPHARMA R&D IP, LLC, priority 2020, published 2023).

In general, pKi refers to −log10 of the Ki, conventionally taken in molar units.

The target of assay [1] is T1, recombinant human ALK5 (TGF-βR1) protein (Homo sapiens, UniProt P36897).
T1 construct: purchased Life Technologies PR9075A
T1 sequence (P36897 34-503): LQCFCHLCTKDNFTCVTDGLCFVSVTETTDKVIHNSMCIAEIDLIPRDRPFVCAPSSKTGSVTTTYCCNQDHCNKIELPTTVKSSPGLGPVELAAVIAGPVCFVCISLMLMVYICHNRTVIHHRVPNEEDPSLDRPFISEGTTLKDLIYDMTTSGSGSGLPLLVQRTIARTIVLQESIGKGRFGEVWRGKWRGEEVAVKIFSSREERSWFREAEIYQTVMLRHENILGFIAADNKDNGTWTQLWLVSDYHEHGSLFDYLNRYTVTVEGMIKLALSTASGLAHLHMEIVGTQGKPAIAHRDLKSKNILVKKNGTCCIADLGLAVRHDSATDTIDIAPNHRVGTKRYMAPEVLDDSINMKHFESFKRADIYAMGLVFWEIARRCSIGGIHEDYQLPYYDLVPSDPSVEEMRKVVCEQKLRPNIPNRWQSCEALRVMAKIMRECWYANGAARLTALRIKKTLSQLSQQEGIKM
Put plainly: Biochemical ALK5 (TGF-βR1) assay to measure pKi (LANCE Ultra ULight kinase assay). As to conditions: apparent pKi, converted from pIC50 by Cheng-Prusoff. The gist of the method: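 Read-out was LANCE Ultra TR-FRET with a europium anti-phospho-Topo IIα Thr1342 antibody after EDTA quench. Kinase reaction ran 60 min at 37 °C with ATP added from a 125 μM 5× stock, after 60 min compound–enzyme equilibration at room temperature. Values are pKi from Cheng-Prusoff conversion of fitted pIC50.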

Assay [2] deals with TGF-β-stimulated SMAD3 phosphorylation in BEAS-2B cells. Put plainly: Cellular ALK5 potency assay, inhibition of TGF-β stimulated pSMAD3 formation in BEAS-2B cells. As to conditions: Homo sapiens, pSMAD3, TGF-β 10 ng/mL, read-out: BEAS2B pIC50 (converted). Type of assay: cell-based. The gist of the method:
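BEAS-2B cells, HBSS/25 mM HEPES/1% BSA buffer; cpd 1 h, 37 °C; TGF-β 10 ng/mL final, 30 min; lysis, AlphaLISA pSMAD3 read next day. pIC50 vs stimulated no-compound baseline.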

pKi: −log10 of the molar value. A value given as a limit tells only on which side of the number the result lay.

Regarding `CNC1CCN(c2ccc(Nc3nccc(Nc4ccnc(-c5cccc(C)n5)n4)n3)cc2)CC1` [Compound 251, N2-[4-[4-(methylamino)-1-piperidyl]phenyl]-N4-[2-(6-methyl-2-pyridyl)pyrimidin-4-yl]pyrimidine-2,4-diamine], in assay [1], the pKi is 9.50 to 10.40. In assay [2], the IC50 is 200 to 1260 nM.
In the case of `CCN1CCN(c2ccc(Nc3nccc(Nc4ccnc(-c5cccc(C)n5)n4)n3)cc2)CC1` [Compound 80, N2-[4-(4-ethylpiperazin-1-yl)phenyl]-N4-[2-(6-methyl-2-pyridyl)pyrimidin-4-yl]pyrimidine-2,4-diamine], the pKi in assay [1] is 9.50 to 10.40. The IC50 in assay [2] is 25.1 to 158 nM.
On to `Cc1cccc(-c2nccc(Nc3ccnc(Nc4ccc(NS(=O)(=O)CC5CCCNC5)cc4)n3)n2)n1` (centres unmarked) [Compound 106, N-(4-((4-((2-(6-methylpyridin-2-yl)pyrimidin-4-yl)amino)pyrimidin-2-yl)amino)phenyl)-1-(piperidin-3-yl)methanesulfonamide], for which the negative-log Ki (pKi) in assay [1] is 9.50 to 10.40. Further, the IC50 in assay [2] is 25.1 to 158 nM.
The like results for `Cc1cccc(-c2cc(Nc3ccnc(Nc4ccc(N5CCOCC5)cc4)n3)c3cc[nH]c3n2)n1` [Compound 1001, N4-[6-(6-methyl-2-pyridyl)-1H-pyrrolo[2,3-b]pyridin-4-yl]-N2-(4-morpholinophenyl)pyrimidine-2,4-diamine] were, in that order, 8.50 to 9.40 and 200 to 1260 nM.
The like results for `Cc1cccc(-c2nc(Nc3ccnc(Nc4ccc(C(=O)O)cn4)n3)c3cccn3n2)n1` [Compound 1020] were, in that order, 7.50 to 8.40 and 200 to 1260 nM.
Regarding `Cc1cccc(-c2nccc(Nc3ccnc(Nc4ccc(C5COCCN5)cc4)n3)n2)n1` (centres unmarked) [Compound 351, N4-[2-(6-methyl-2-pyridyl)pyrimidin-4-yl]-N2-(4-morpholin-3-ylphenyl)pyrimidine-2,4-diamine], the negative-log Ki (pKi) in assay [1] is 9.50 to 10.40. The IC50 in assay [2] was ≤ 20 nM.
Regarding `Cc1cccc(-c2nccc(Nc3ccnc(Nc4csc(C(=O)N5CCN[C@@H](CO)C5)c4)n3)n2)n1` [Compound 536, [(3R)-3-(hydroxymethyl)piperazin-1-yl]-[4-[[4-[[2-(6-methyl-2-pyridyl)pyrimidin-4-yl]amino]pyrimidin-2-yl]amino]-2-thienyl]methanone], in assay [1], the negative-log Ki (pKi) was 9.50 to 10.40. Also, the IC50 in assay [2] is 25.1 to 158 nM.
On the same counts, the results for `Cc1cccc(-c2nccc(Nc3ccnc(Nc4ccc(NCCN5CCN(C(C)C)CC5)cc4)n3)n2)n1` [Compound 346, N2-[4-[2-(4-isopropylpiperazin-1-yl)ethylamino]phenyl]-N4-[2-(6-methyl-2-pyridyl)pyrimidin-4-yl]pyrimidine-2,4-diamine] are 9.50 to 10.40 and 25.1 to 158 nM.
As for `Cc1cccc(-c2nccc(Nc3ccnc(Nc4nc(C)cs4)n3)n2)n1` [Compound 226, N4-[2-(6-methyl-2-pyridyl)pyrimidin-4-yl]-N2-(4-methylthiazol-2-yl)pyrimidine-2,4-diamine], the pKi in assay [1] was 7.50 to 8.40. Further, the IC50 in assay [2] is 25.1 to 158 nM.
The like results for `Cc1cccc(-c2nccc(Nc3ccnc(Nc4cccc(C(=O)N5CCOCC5)c4)n3)n2)n1` [Compound 72, [3-[[4-[[2-(6-methyl-2-pyridyl)pyrimidin-4-yl]amino]pyrimidin-2-yl]amino]phenyl]-morpholino-methanone] were, in that order, 8.50 to 9.40 and 25.1 to 158 nM.
As to `Cc1cccc(-c2nccc(Nc3ccnc(Nc4ccc(C(=O)OC[C@@H]5CCNC5)nc4)n3)n2)n1` [Compound 584, [(3R)-pyrrolidin-3-yl]methyl 5-[[4-[[2-(6-methyl-2-pyridyl)pyrimidin-4-yl]amino]pyrimidin-2-yl]amino]pyridine-2-carboxylate], in assay [1], the negative-log Ki (pKi) is 9.50 to 10.40. The IC50 in assay [2] is 25.1 to 158 nM.
On the same counts, the results for `Cc1cccc(-c2nccc(Nc3ccnc(Nc4nc(CN5CCC[C@@H](C(=O)O)C5)cs4)n3)n2)n1` [Compound 339, (3R)-1-[[2-[[4-[[2-(6-methyl-2-pyridyl)pyrimidin-4-yl]amino]pyrimidin-2-yl]amino]thiazol-4-yl]methyl]piperidine-3-carboxylic acid] are 8.50 to 9.40 and 200 to 1260 nM.
On the same counts, the results for `Cc1cccc(-c2nccc(Nc3ccnc(Nc4ccc(CN5C[C@@H]6C[C@H]5CN6)cc4)n3)n2)n1` [Compound 375, N2-[4-[[(1S,4S)-2,5-diazabicyclo[2.2.1]heptan-2-yl]methyl]phenyl]-N4-[2-(6-methyl-2-pyridyl)pyrimidin-4-yl]pyrimidine-2,4-diamine] are 9.50 to 10.40 and 25.1 to 158 nM.
In the case of `Cc1cccc(-c2nccc(Nc3ccnc(Nc4ccc(N5CCCC(C(=O)OC6CCNCC6)C5)cc4)n3)n2)n1` (centres unmarked) [Compound 215, 4-piperidyl 1-[4-[[4-[[2-(6-methyl-2-pyridyl)pyrimidin-4-yl]amino]pyrimidin-2-yl]amino]phenyl]piperidine-3-carboxylate], the pKi in assay [1] is 9.50 to 10.40. The IC50 in assay [2] is 200 to 1260 nM.
On the same counts, the results for `Cc1cccc(-c2nc(Nc3ccnc(Nc4ccc(N5CCOCC5)cc4)n3)ccc2C#N)n1` [Compound 1003, 2-(6-methyl-2-pyridyl)-6-[[2-(4-morpholinoanilino)pyrimidin-4-yl]amino]pyridine-3-carbonitrile] are 7.50 to 8.40 and 200 to 1260 nM.
On to `Cc1cccc(-c2nccc(Nc3ccnc(Nc4ccc(C)c(CN5CCN(C)CC5)c4)n3)n2)n1` [Compound 311, N2-[4-methyl-3-[(4-methylpiperazin-1-yl)methyl]phenyl]-N4-[2-(6-methyl-2-pyridyl)pyrimidin-4-yl]pyrimidine-2,4-diamine], for which, in assay [1], the pKi was 9.50 to 10.40. Moreover, the IC50 in assay [2] was 25.1 to 158 nM.
On the same counts, the results for `Cc1cccc(-c2nccc(Nc3ccnc(Nc4cccc(N5CCN(C)CC5)c4)n3)n2)n1` [Compound 233, N2-[3-(4-methylpiperazin-1-yl)phenyl]-N4-[2-(6-methyl-2-pyridyl)pyrimidin-4-yl]pyrimidine-2,4-diamine] are 9.50 to 10.40 and 25.1 to 158 nM.
As to `Cc1cccc(-c2nccc(Nc3ccnc(Nc4ccc(N5CCC(C(=O)OC6CCNCC6)CC5)cc4)n3)n2)n1` [Compound 218, 4-piperidyl 1-[4-[[4-[[2-(6-methyl-2-pyridyl)pyrimidin-4-yl]amino]pyrimidin-2-yl]amino]phenyl]piperidine-4-carboxylate], the pKi in assay [1] is 9.50 to 10.40. Further, the IC50 in assay [2] was 25.1 to 158 nM.
Take `Cc1cccc(-c2nccc(Nc3ccnc(Nc4ccc(NCC5CNC5)cc4)n3)n2)n1` [Compound 537, N2-(4-((azetidin-3-ylmethyl)amino)phenyl)-N4-(2-(6-methylpyridin-2-yl)pyrimidin-4-yl)pyrimidine-2,4-diamine]: in assay [1], the negative logarithm of the Ki (pKi) is 9.50 to 10.40. Besides, the IC50 in assay [2] is 25.1 to 158 nM.
On the same counts, the results for `Cc1cccc(-c2nc(Nc3ccnc(Nc4ccc(N5CCOCC5)cc4)n3)c3nn[nH]c3n2)n1` [Compound 340, N4-[5-(6-methyl-2-pyridyl)-3H-triazolo[4,5-d]pyrimidin-7-yl]-N2-(4-morpholinophenyl)pyrimidine-2,4-diamine] are 9.50 to 10.40 and 200 to 1260 nM.
As for `Cc1cccc(-c2nccc(Nc3ccnc(Nc4ccc(N5CCN[C@H](C(=O)O)C5)cc4)n3)n2)n1` [Compound 488, (2S)-4-[4-[[4-[[2-(6-methyl-2-pyridyl)pyrimidin-4-yl]amino]pyrimidin-2-yl]amino]phenyl]piperazine-2-carboxylic acid], in assay [1], the pKi is 9.50 to 10.40. The IC50 in assay [2] was 200 to 1260 nM.
For the compound `Cc1cccc(-c2nccc(Nc3ccnc(Nc4ccc(N[C@H]5CCNC5)cc4)n3)n2)n1` [Compound 1, N4-[2-(6-methyl-2-pyridyl)pyrimidin-4-yl]-N2-[4-[[(3S)-pyrrolidin-3-yl]amino]phenyl]pyrimidine-2,4-diamine], the pKi in assay [1] is 9.50 to 10.40. Also, the IC50 in assay [2] was 25.1 to 158 nM.
Take `Cc1cccc(-c2nccc(Nc3ccnc(Nc4ccc(CN5CCC(C(=O)OCC6CNC6)CC5)cc4)n3)n2)n1` [Compound 275, azetidin-3-ylmethyl 1-[[4-[[4-[[2-(6-methyl-2-pyridyl)pyrimidin-4-yl]amino]pyrimidin-2-yl]amino]phenyl]methyl] piperidine-4-carboxylate]: the pKi in assay [1] is 9.50 to 10.40. The IC50 in assay [2] was 25.1 to 158 nM.
On the same counts, the results for `Cc1cccc(-c2nccc(Nc3ccnc(Nc4ccc(-c5cn(Cc6ccccc6)nn5)cc4)n3)n2)n1` [Compound 333, N2-[4-(1-benzyltriazol-4-yl)phenyl]-N4-[2-(6-methyl-2-pyridyl)pyrimidin-4-yl]pyrimidine-2,4-diamine] are 7.50 to 8.40 and 25.1 to 158 nM.
The like results for `Cc1cccc(-c2nccc(Nc3ccnc(Nc4ccc(C(=O)OC[C@H]5CCNC5)nc4)n3)n2)n1` [Compound 582, [(3S)-pyrrolidin-3-yl]methyl 5-[[4-[[2-(6-methyl-2-pyridyl)pyrimidin-4-yl]amino]pyrimidin-2-yl]amino]pyridine-2-carboxylate] were, in that order, 9.50 to 10.40 and 25.1 to 158 nM.
